{"source": "patent US8778342B2", "about": "“Antibody therapy” (Immunomedics, Inc., priority 2002, dated 2014)", "molecules": {"B1": {"name": "murine MN-14: murine Class III anti-CEA MAb, reacting with CEA, unreactive with NCA and meconium antigen (antibody, listed as Mus sp., V domains shown)", "VH": "EVKLLESGGGLVQSGGSLKLSCAASGFDFTTYWMSWVRQAPGKGLEWIGEIHPDSSTINYAPSLKDKFIVSRDNAKNTLYLQMSKVRSEDTALYYCASLYFGFPWFAYWGQGTPVTVSA", "VL": "EIQLTQSHKMMSTSVGDRVSITCKASQDVGTSVAWYQQRPGQSPKLLIYWTSTRHTGVPDRFTGSVSGTDFTLTITNVQSEDLADYFCQQYSLYRSFGGGTKLEIK", "modifications": "constant regions"}}, "key": {"TT tumors": {"system": "TT tumors", "assay": "Naked anti-CEA MAb alone on growth of TT tumors in nude mice", "details": "for tumors less than 0.5 cm^3: at day-37, 0.5 mg/mouse weekly x4, untreated 40%"}, "[1]": {"system": "GW-39 human colorectal tumors", "assay": "Survival in GW-39 intrapulmonary micrometastasis model in nude mice", "details": "for increase of median survival time: FIG. 18, single agent versus untreated"}, "[2]": {"system": "TT (human medullary thyroid) tumor cells", "format": "in vivo", "details": "DTIC 75 μg/dose days 2, 3, 4, hMN-14 100 μg/dose from day 2; for mice with no palpable tumor at 7 weeks: 10 mice/group"}, "TT MTC xenografts": {"system": "TT MTC xenografts", "assay": "Chemotherapy of TT MTC xenografts in nude mice", "format": "in vivo, human", "details": "for growth inhibition of TT xenografts, drug given individually: doses of FIG. 3; for Mean survival time: untreated control 4 weeks"}, "meconium antigen": {"system": "meconium antigen", "details": "Hansen et al., Cancer 71:3478 (1993); cited from earlier work"}, "TT cells": {"system": "TT cells", "assay": "Flow cytometry reactivity with TT cells"}, "CEA": {"molecular_target": "T1, CEA (Homo sapiens, UniProt P06731)", "T1 sequence (P06731 35-676)": "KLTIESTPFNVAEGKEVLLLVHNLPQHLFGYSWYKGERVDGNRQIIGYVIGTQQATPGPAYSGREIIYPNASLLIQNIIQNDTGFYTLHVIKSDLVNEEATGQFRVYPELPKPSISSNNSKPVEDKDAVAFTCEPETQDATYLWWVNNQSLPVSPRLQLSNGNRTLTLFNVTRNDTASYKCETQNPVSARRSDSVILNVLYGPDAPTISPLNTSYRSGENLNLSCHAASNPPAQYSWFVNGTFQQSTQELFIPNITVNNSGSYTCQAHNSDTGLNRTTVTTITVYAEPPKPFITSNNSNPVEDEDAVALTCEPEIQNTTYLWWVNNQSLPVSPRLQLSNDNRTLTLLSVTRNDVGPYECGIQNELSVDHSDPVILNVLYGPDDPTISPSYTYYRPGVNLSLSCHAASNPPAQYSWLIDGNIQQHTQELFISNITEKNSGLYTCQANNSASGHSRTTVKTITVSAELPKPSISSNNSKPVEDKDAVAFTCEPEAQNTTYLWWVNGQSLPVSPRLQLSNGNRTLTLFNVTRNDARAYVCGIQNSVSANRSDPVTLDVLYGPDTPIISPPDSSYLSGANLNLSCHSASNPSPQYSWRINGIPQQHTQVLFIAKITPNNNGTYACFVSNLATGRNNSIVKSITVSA", "details": "Hansen et al., Cancer 71:3478 (1993); cited from earlier work"}, "[3]": {"molecular_target": "T2, normal cross reactive antigen, NCA (Homo sapiens, UniProt P40199)", "T2 sequence (P40199 35-320)": "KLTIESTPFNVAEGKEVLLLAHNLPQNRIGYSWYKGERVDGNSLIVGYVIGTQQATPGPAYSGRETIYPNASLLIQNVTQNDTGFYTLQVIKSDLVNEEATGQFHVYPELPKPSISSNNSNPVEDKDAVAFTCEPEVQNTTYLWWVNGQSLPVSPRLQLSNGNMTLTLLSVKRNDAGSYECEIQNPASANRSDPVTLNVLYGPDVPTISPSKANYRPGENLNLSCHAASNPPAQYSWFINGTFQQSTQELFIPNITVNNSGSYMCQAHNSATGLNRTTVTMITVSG", "details": "Hansen et al., Cancer 71:3478 (1993); cited from earlier work"}, "[4]": {"details": "FIG. 16 advanced colon cancer model, single agents"}}, "note": "Entries after “also recorded” stand apart in the source; their conditions may differ.", "data": [{"molecule": "hLL2: negative control humanized MAb, anti-CD22 [reference compound]", "values": [{"measurement": "tumors less than 0.5 cm^3", "setting": "TT tumors", "value": 29, "unit": "%"}]}, {"molecule": "CCc1c2c(nc3ccc(OC(=O)N4CCC(N5CCCCC5)CC4)cc13)-c1cc3c(c(=O)n1C2)COC(=O)[C@]3(O)CC", "note": "[CPT-11, irinotecan]", "values": [{"measurement": "median survival time", "setting": "[1]; 10% GW-39 cell suspension, treatment from day 0, CPT-11 10% MTD (80 μg/d x 5 days), hMN14 100 μg/d, untreated 56 days", "value": 63, "unit": "days"}, {"measurement": "median survival", "setting": "[1]; FIG. 16 advanced colon cancer model, hMN-14 100 μg/day from day 0, CPT-11 60 μg/day over 5 days", "value": 63, "unit": "days"}, {"measurement": "effect on survival", "setting": "[1]; [4]", "value": "only a modest effect"}, {"measurement": "median survival time", "setting": "[1]; FIG. 17 reduced tumor burden model, 5% tumor cell suspension, dosages of Example 14", "value": 70, "unit": "days"}, {"measurement": "increase of median survival time", "setting": "[1]; 5% tumor cell suspension", "value": 76, "unit": "%"}, {"measurement": "median survival", "setting": "[1]; pretreatment study, CPT-11 on day 0, alone or co-treatment with hMN-14, untreated 35 days", "value": 63, "unit": "days"}, {"measurement": "median survival", "setting": "[1]; pretreatment study, CPT-11 on day 3, alone or after 3-day pretreatment with hMN-14, untreated 35 days", "value": 70, "unit": "days"}]}, {"molecule": "hMN-14: humanized (CDR-grafted) Class III anti-CEA monoclonal antibody MN-14, naked", "values": [{"measurement": "mean tumor sizes versus untreated animals", "setting": "TT tumors; 0.5 mg single i.v. injection eleven days post tumor cell injection", "value": "no significant differences"}, {"measurement": "tumor growth versus untreated group", "setting": "TT tumors; 0.5 mg single i.v. injection on day-1 post tumor injection", "value": "significant growth delay"}, {"measurement": "inhibition of tumor size compared to the untreated animals", "setting": "TT tumors; 0.5 mg single i.v. injection one day post tumor cell injection, between day-32 and day-60", "value": "64-70%"}, {"measurement": "tumors less than 0.5 cm^3", "setting": "TT tumors", "value": 87, "unit": "%"}, {"measurement": "Mean tumor volumes at 7 weeks", "setting": "[2]", "value": "0.899±0.545", "unit": "cm^3"}, {"measurement": "mice with no palpable tumor at 7 weeks", "setting": "[2]", "value": "0/10"}, {"measurement": "delay / inhibition of tumor growth", "setting": "[2]; nude mice", "value": "Significant delays in tumor growth; also recorded: significant effect on inhibiting tumor growth"}, {"measurement": "effect on survival", "setting": "[1]; [4]", "value": "No effect"}, {"measurement": "effect on survival", "setting": "[1]; FIG. 17 reduced tumor burden model, 5% tumor cell suspension", "value": "no apparent effect"}, {"measurement": "increase of median survival time", "setting": "[1]; 5% tumor cell suspension", "value": 21, "unit": "%"}, {"measurement": "efficacy on high (interferon-gamma induced) versus low CEA-expressing tumor cells", "setting": "[1]; FIG. 21", "value": "improved efficacy"}]}, {"molecule": "CC[C@]1(O)C[C@H]2CN(CCc3c([nH]c4ccccc34)[C@@](C(=O)OC)(c3cc4c(cc3OC)N(C=O)[C@H]3[C@@](O)(C(=O)OC)[C@H](OC(C)=O)[C@]5(CC)C=CCN6CC[C@]43[C@@H]65)C2)C1", "note": "[vincristine]", "values": [{"measurement": "growth inhibition of TT xenografts, drug given individually", "setting": "TT MTC xenografts", "value": "not"}]}, {"molecule": "CN(C)/N=N/c1[nH]cnc1C(N)=O", "note": "[DTIC, dacarbazine, reference compound]", "values": [{"measurement": "Mean tumor volumes at 7 weeks", "setting": "[2]", "value": "0.284 ± 0.197", "unit": "cm^3"}, {"measurement": "mice with no palpable tumor at 7 weeks", "setting": "[2]", "value": "1/10"}, {"measurement": "Mean survival time", "setting": "TT MTC xenografts", "value": 11, "unit": "weeks"}]}, {"molecule": "O=P1(N(CCCl)CCCl)NCCCO1", "note": "(stereo not shown) [cyclophosphamide]", "values": [{"measurement": "growth inhibition of TT xenografts, drug given individually", "setting": "TT MTC xenografts", "value": "significant growth inhibition"}, {"measurement": "Log rank analysis of survival versus the untreated group", "setting": "TT MTC xenografts; individual drugs", "value": "significant difference"}, {"measurement": "Mean survival time", "setting": "TT MTC xenografts", "value": 8, "unit": "weeks"}]}, {"molecule": "COc1cccc2c1C(=O)c1c(O)c3c(c(O)c1C2=O)C[C@@](O)(C(=O)CO)C[C@@H]3O[C@H]1C[C@H](N)[C@H](O)[C@H](C)O1", "note": "[doxorubicin]", "values": [{"measurement": "growth inhibition of TT xenografts, drug given individually", "setting": "TT MTC xenografts", "value": "significant growth inhibition"}]}, {"molecule": "B1", "values": [{"measurement": "reactivity with meconium antigen", "setting": "meconium antigen", "value": "unreactive"}, {"measurement": "reactivity with TT cells by flow cytometry", "setting": "TT cells", "value": "react with TT cells"}, {"measurement": "reactivity with CEA", "setting": "CEA", "value": "reacting with CEA"}, {"measurement": "reactivity with NCA", "setting": "[3]", "value": "unreactive"}]}]}
